Measurements reported in publication PMC5201249, “Agrobacterium tumefaciens estC, Encoding an Enzyme Containing Esterase Activity, Is Regulated by EstR, a Regulator in the MarR Family” (PLoS ONE, 2016).

Target: T1, EstR (Atu5211) (Agrobacterium fabrum, UniProt A9CLK2)
T1 construct: full length, non-tagged, pETBlue-2, E. coli BL21(DE3), heparin and Q-Sepharose columns
T1 sequence (A9CLK2 1-155): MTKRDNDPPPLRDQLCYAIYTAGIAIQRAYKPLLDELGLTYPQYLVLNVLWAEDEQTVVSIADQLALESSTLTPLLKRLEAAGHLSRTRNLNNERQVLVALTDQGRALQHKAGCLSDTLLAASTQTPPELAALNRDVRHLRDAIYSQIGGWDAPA
Experiment: gel mobility shift: loss of EstR binding to […]-labelled 314-bp estR-estC promoter DNA
Conditions: 1 mM CHP; pH 7.0, 25 C; covalent (oxidation of sensing Cys16)

SMILES: CC(C)(OO)c1ccccc1 [CHP, cumene hydroperoxide]
- gel mobility shift: loss of EstR binding to 32P-labelled 314-bp estR-estC promot: prior CHP treatment of EstR prevented the repressor from binding to the promoter fragment
